# Reference: patent publication US9464106B2, “Oligonucleotides useful for detecting and analyzing nucleic acids of interest” (Exiqon A/S, priority 2002, dated 2016)
# l = locked nucleic acid (LNA); d = 2'-deoxy (DNA)
# System: yeast HSP78 (YDR258C) sequence
# Assay: Duplex melting temperatures of HSP78 25-mer capture probes (UV spectrophotometer)
# Conditions: 25-mer capture probe duplex with complementary target; design PM = perfectly matched, MM = single mismatch; DNA, LNA_T (T) or LNA_TC (TC) substituted
row,Substance,Average duplex melting temp. [°C]
1,"12759 (DNA ATCAAATAGGAATTCAGCTAAAGCC; DNA, backbone not given here; further chemistry not fully specified) [compound 12759]",61.5
2,"12760 (DNA GACCTAAGAACATAAAGCTGGCAAT; DNA, backbone not given here; further chemistry not fully specified) [compound 12760]",63.5
3,"12761 (DNA AAATAGCAGCAATGGCCTCGTCTTG; DNA, backbone not given here; further chemistry not fully specified) [compound 12761]",69.2
4,"12762 (DNA ATAGCAGCAATGGCCTCGTCTTGGC; DNA, backbone not given here; further chemistry not fully specified) [compound 12762]",72.7
5,"12763 (DNA GCAATGGCCTCGTCTTGGCCAACGA; DNA, backbone not given here; further chemistry not fully specified) [compound 12763]",72.8
6,"12764 (DNA GATGAACTCAGGTGGATAGGATCTT; DNA, backbone not given here; further chemistry not fully specified) [compound 12764]",64
7,"12765 (DNA TCAGTTAGCCAATCCTTCGCTTCAT; DNA, backbone not given here; further chemistry not fully specified) [compound 12765]",66.1
8,"12766 (DNA GTTGCCATGGAGTTCAAAATCTGTC; DNA, backbone not given here) [compound 12766]",65.8
9,"12767 (DNA AGACGTACAGCATCAGAAATAGCAG; DNA, backbone not given here; further chemistry not fully specified) [compound 12767]",66.6
10,"12768 (DNA TTTGGTAGCACGACAAGCTTAGTAT; DNA, backbone not given here) [compound 12768]",65.7
11,"12769 (DNA ATAAAGCTGGCAATAGGTCTCTTTT; DNA, backbone not given here; further chemistry not fully specified) [compound 12769]",63.6
12,"12770 (DNA TTTTTCGGCCAAACGATCTTGAATT; DNA, backbone not given here; further chemistry not fully specified) [compound 12770]",65
13,"12771 (DNA CACTCTAACAGTTTCGCCGTTTCTA; DNA, backbone not given here) [compound 12771]",66.3
14,"12772 (DNA TCAATGGCCTTGCACCATATAATTG; DNA, backbone not given here) [compound 12772]",64
15,"12773 (DNA AAAACGACAGCATAAGGCTTTCTTC; DNA, backbone not given here; further chemistry not fully specified) [compound 12773]",64.5
16,"12774 (DNA ATTGACCTCAAAACTTTCTTGGATA; DNA, backbone not given here; further chemistry not fully specified) [compound 12774]",61.8
17,"12775 (DNA CCCAACTTTGTGTCGTTTAATAAAA; DNA, backbone not given here; further chemistry not fully specified) [compound 12775]",61
18,"12776 (DNA ACCATCATCACCCAACTTTGTGTCG; DNA at ACG, LNA at T, backbone not given here; further chemistry not fully specified) [compound 12776]",79.2
19,"12777 (DNA CAATGATCGTGTTACGGAAATCAAC; sugars from the 5' end dddlddlddlddldddddddldddd, backbone not given here; further chemistry not fully specified) [compound 12777]",72.2
20,"12778 (DNA TGGCCTAGGGAATCGGTCAGCTTAC; DNA at ACG, LNA at T, backbone not given here; further chemistry not fully specified) [compound 12778]",76.9
21,"12779 (DNA TTGGAAACATCGGGGTGCGCTTTTT; sugars from the 5' end lldddddddldddddlddddlllld, backbone not given here; further chemistry not fully specified) [compound 12779]",76.7

row,Substance,Average duplex melting temp. [°C]
1,"12780 (DNA GAAACATCGGGGTGCGCTTTTTCAA; DNA at ACG, LNA at T, backbone not given here; further chemistry not fully specified) [compound 12780]",78
2,"12781 (DNA GACAGCCTCAGTTAATTGGCCACCA; sugars from the 5' end dddddddlddddlddlldddddddd, backbone not given here; further chemistry not fully specified) [compound 12781]",75.4
3,"12782 (DNA CCGATTAAACGAGAGACAGTATGCT; sugars from the 5' end ddddlldddddddddddddldlddd, backbone not given here; further chemistry not fully specified) [compound 12782]",72.2
4,"12783 (DNA ATCAAATAGGAATTCAGCTAAAGCC; DNA at ACG, LNA at T, backbone not given here; further chemistry not fully specified) [compound 12783]",66.3
5,"12784 (DNA GACCTAAGAACATAAAGCTGGCAAT; sugars from the 5' end ddddldddddddldddddldddddd, backbone not given here; further chemistry not fully specified) [compound 12784]",67.5
6,"12785 (DNA AAATAGCAGCAATGGCCTCGTCTTG; DNA at ACG, LNA at T, backbone not given here; further chemistry not fully specified) [compound 12785]",77.2
7,"12786 (DNA ATAGCAGCAATGGCCTCGTCTTGGC; DNA at ACG, LNA at T, backbone not given here; further chemistry not fully specified) [compound 12786]",80.1
8,"12787 (DNA GCAATGGCCTCGTCTTGGCCAACGA; DNA at ACG, LNA at T, backbone not given here; further chemistry not fully specified) [compound 12787]",80.8
9,"12788 (DNA GATGAACTCAGGTGGATAGGATCTT; sugars from the 5' end ddlddddlddddldddlddddldld, backbone not given here; further chemistry not fully specified) [compound 12788]",71
10,"12789 (DNA TCAGTTAGCCAATCCTTCGCTTCAT; sugars from the 5' end ldddllddddddlddlldddllddd, backbone not given here; further chemistry not fully specified) [compound 12789]",75.7
11,"12790 (DNA GTTGCCATGGAGTTCAAAATCTGTC; sugars from the 5' end dllddddlddddlddddddldldld, backbone not given here; further chemistry not fully specified) [compound 12790]",74.7
12,"12791 (DNA AGACGTACAGCATCAGAAATAGCAG; DNA at ACG, LNA at T, backbone not given here; further chemistry not fully specified) [compound 12791]",71.4
13,"12792 (DNA TTTGGTAGCACGACAAGCTTAGTAT; sugars from the 5' end lllddlddddddddddddllddldd, backbone not given here; further chemistry not fully specified) [compound 12792]",74.2
14,"12793 (DNA ATAAAGCTGGCAATAGGTCTCTTTT; sugars from the 5' end dldddddldddddldddldldllld, backbone not given here; further chemistry not fully specified) [compound 12793]",74.3
15,"12794 (DNA TTTTTCGGCCAAACGATCTTGAATT; sugars from the 5' end ldllldddddddddddldlldddld, backbone not given here; further chemistry not fully specified) [compound 12794]",71
16,"12795 (DNA CACTCTAACAGTTTCGCCGTTTCTA; sugars from the 5' end dddldlddddddlddddddllldld, backbone not given here; further chemistry not fully specified) [compound 12795]",75.5
17,"12796 (DNA TCAATGGCCTTGCACCATATAATTG; DNA at ACG, LNA at T, backbone not given here; further chemistry not fully specified) [compound 12796]",74
18,"12797 (DNA AAAACGACAGCATAAGGCTTTCTTC; DNA at ACG, LNA at T, backbone not given here; further chemistry not fully specified) [compound 12797]",71.7
19,"12798 (DNA ATTGACCTCAAAACTTTCTTGGATA; DNA at ACG, LNA at T, backbone not given here; further chemistry not fully specified) [compound 12798]",70.2
20,"12799 (DNA CCCAACTTTGTGTCGTTTAATAAAA; DNA at ACG, LNA at T, backbone not given here; further chemistry not fully specified) [compound 12799]",75.1
